{"source": "the kinase profiling compilation of Christmann-Franck et al. (2016)", "experiment_in_all_cases": "radiometric filter-binding kinase assay, Kinase HotSpot", "settings_in_all_cases": "compound 0.5 µM; ATP 10 µM", "key": {"OXSR1 (human)": {"target": "OXSR1 (human) (UniProt O95747)"}, "PTK2 (human)": {"target": "PTK2 (human) (UniProt Q05397)"}, "CAMK1G (human)": {"target": "CAMK1G (human) (UniProt Q96NX5)"}, "PAK1 (human)": {"target": "PAK1 (human) (UniProt Q13153)"}, "CSNK1G2 (human)": {"target": "CSNK1G2 (human) (UniProt P78368)"}, "MARK1 (human)": {"target": "MARK1 (human) (UniProt Q9P0L2)"}, "EPHA7 (human)": {"target": "EPHA7 (human) (UniProt Q15375)"}, "NEK7 (human)": {"target": "NEK7 (human) (UniProt Q8TDX7)", "sequence (Q8TDX7 whole entry, looked up)": "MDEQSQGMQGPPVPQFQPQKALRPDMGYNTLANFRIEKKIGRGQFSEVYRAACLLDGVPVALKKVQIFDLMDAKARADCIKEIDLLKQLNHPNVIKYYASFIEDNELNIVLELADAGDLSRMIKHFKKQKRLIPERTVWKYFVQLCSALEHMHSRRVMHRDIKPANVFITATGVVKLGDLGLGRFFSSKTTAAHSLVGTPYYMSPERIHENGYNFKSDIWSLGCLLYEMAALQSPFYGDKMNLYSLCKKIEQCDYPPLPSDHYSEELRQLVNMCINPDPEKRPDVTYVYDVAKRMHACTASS"}, "FRK (human)": {"target": "FRK (human) (UniProt P42685)"}, "ADRBK1 (human)": {"target": "ADRBK1 (human) (UniProt P25098)"}, "MAP4K4 (human)": {"target": "MAP4K4 (human) (UniProt O95819)"}, "STK3 (human)": {"target": "STK3 (human) (UniProt Q13188)", "sequence (Q13188 whole entry, looked up)": "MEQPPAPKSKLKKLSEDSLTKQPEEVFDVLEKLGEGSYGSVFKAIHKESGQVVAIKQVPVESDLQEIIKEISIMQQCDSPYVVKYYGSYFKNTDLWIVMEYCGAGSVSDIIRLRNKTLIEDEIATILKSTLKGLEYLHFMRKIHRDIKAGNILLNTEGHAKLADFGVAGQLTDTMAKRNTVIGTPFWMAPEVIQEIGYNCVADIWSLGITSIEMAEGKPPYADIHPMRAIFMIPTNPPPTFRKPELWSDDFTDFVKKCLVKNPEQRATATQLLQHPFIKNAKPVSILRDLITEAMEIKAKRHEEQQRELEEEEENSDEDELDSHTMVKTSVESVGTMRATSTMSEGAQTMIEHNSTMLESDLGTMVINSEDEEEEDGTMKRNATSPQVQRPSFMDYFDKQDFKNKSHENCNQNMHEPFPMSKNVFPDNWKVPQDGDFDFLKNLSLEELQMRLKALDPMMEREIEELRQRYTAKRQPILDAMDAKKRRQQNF"}, "NEK9 (human)": {"target": "NEK9 (human) (UniProt Q8TD19)"}, "CDC42BPA (human)": {"target": "CDC42BPA (human) (UniProt Q5VT25)"}, "PTK2B (human)": {"target": "PTK2B (human) (UniProt Q14289)"}, "MATK (human)": {"target": "MATK (human) (UniProt P42679)"}, "CAMK2G (human)": {"target": "CAMK2G (human) (UniProt Q13555)"}, "RET (human)": {"target": "RET (human) (UniProt P07949)", "sequence (P07949 whole entry, looked up)": "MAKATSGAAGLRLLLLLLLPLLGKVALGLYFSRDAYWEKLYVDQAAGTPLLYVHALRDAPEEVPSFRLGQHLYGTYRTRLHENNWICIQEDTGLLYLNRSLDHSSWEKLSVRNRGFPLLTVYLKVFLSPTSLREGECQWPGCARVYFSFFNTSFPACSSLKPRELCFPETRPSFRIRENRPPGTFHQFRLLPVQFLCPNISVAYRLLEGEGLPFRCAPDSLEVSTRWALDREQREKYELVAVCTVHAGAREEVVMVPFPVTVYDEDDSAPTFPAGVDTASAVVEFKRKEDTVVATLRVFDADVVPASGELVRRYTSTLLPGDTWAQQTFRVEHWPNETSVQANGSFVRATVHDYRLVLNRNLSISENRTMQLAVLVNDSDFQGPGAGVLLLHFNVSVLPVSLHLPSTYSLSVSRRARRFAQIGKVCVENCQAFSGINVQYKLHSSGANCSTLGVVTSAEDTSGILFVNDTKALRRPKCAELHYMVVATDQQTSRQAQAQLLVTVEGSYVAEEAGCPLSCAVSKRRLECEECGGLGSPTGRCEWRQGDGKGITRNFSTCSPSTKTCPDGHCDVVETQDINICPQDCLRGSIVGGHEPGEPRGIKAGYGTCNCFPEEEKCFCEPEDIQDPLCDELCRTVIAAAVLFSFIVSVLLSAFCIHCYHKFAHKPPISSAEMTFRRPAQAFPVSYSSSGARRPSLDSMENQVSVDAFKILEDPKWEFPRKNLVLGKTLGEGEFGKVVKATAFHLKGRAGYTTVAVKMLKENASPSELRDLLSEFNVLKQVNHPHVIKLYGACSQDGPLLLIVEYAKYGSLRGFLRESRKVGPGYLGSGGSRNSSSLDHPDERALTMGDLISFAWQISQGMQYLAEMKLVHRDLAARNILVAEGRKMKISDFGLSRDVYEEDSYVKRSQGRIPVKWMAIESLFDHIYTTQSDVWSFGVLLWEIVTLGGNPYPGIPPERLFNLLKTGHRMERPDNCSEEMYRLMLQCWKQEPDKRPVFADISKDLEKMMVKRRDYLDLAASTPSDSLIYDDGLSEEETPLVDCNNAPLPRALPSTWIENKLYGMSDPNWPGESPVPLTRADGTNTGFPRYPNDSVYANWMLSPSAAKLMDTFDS"}, "MAPK9 (human)": {"target": "MAPK9 (human) (UniProt P45984)"}, "PIM2 (human)": {"target": "PIM2 (human) (UniProt Q9P1W9)"}, "IKBKB (human)": {"target": "IKBKB (human) (UniProt O14920)"}, "DYRK1B (human)": {"target": "DYRK1B (human) (UniProt Q9Y463)"}, "SRMS (human)": {"target": "SRMS (human) (UniProt Q9H3Y6)"}, "NEK11 (human)": {"target": "NEK11 (human) (UniProt Q8NG66)"}, "TSSK2 (human)": {"target": "TSSK2 (human) (UniProt Q96PF2)", "sequence (Q96PF2 whole entry, looked up)": "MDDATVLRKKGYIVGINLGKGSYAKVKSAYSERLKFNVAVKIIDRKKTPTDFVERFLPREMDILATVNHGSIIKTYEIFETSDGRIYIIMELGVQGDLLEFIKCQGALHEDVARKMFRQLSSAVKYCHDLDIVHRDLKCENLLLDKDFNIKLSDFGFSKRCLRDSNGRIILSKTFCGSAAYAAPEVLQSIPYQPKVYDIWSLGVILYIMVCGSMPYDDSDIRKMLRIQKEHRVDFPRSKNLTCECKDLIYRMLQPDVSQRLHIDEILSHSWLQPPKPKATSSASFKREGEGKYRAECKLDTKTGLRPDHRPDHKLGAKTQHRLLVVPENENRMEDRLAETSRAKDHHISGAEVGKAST"}, "MST4 (human)": {"target": "MST4 (human) (UniProt Q9P289)"}, "PAK3 (human)": {"target": "PAK3 (human) (UniProt O75914)"}, "MUSK (human)": {"target": "MUSK (human) (UniProt O15146)"}, "GSK3B (human)": {"target": "GSK3B (human) (UniProt P49841)"}, "FES (human)": {"target": "FES (human) (UniProt P07332)"}, "IKBKE (human)": {"target": "IKBKE (human) (UniProt Q14164)"}, "NUAK1 (human)": {"target": "NUAK1 (human) (UniProt O60285)"}, "ULK1 (human)": {"target": "ULK1 (human) (UniProt O75385)", "sequence (O75385 whole entry, looked up)": "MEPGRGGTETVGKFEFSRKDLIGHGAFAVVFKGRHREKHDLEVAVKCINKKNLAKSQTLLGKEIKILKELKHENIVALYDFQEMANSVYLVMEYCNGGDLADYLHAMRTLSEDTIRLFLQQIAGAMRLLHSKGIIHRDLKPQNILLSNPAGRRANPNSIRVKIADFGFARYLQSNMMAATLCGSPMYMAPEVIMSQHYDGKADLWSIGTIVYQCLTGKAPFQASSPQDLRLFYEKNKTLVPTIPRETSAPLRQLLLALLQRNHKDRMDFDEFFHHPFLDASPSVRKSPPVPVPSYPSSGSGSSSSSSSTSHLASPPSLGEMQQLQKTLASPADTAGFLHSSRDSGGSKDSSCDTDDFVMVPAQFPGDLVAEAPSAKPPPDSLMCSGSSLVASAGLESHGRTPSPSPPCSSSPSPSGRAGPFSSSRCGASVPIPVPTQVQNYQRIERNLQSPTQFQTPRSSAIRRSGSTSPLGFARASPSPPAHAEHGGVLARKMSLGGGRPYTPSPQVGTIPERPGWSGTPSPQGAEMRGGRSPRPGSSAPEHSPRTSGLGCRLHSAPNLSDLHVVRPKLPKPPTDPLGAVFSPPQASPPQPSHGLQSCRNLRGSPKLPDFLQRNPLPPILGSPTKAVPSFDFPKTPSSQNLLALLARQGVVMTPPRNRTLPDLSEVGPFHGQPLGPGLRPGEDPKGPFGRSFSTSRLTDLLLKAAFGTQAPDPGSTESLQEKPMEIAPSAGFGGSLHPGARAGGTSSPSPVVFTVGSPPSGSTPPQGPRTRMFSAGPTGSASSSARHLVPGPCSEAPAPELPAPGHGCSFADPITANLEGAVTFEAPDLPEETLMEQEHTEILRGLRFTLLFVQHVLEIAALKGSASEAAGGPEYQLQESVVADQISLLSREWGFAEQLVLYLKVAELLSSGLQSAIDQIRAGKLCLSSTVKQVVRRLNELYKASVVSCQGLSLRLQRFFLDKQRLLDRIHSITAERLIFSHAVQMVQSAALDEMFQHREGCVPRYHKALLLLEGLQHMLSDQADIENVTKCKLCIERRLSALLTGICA"}, "EPHA1 (human)": {"target": "EPHA1 (human) (UniProt P21709)"}, "CAMK2D (human)": {"target": "CAMK2D (human) (UniProt Q13557)"}, "TAOK2 (human)": {"target": "TAOK2 (human) (UniProt Q9UL54)", "sequence (Q9UL54 whole entry, looked up)": "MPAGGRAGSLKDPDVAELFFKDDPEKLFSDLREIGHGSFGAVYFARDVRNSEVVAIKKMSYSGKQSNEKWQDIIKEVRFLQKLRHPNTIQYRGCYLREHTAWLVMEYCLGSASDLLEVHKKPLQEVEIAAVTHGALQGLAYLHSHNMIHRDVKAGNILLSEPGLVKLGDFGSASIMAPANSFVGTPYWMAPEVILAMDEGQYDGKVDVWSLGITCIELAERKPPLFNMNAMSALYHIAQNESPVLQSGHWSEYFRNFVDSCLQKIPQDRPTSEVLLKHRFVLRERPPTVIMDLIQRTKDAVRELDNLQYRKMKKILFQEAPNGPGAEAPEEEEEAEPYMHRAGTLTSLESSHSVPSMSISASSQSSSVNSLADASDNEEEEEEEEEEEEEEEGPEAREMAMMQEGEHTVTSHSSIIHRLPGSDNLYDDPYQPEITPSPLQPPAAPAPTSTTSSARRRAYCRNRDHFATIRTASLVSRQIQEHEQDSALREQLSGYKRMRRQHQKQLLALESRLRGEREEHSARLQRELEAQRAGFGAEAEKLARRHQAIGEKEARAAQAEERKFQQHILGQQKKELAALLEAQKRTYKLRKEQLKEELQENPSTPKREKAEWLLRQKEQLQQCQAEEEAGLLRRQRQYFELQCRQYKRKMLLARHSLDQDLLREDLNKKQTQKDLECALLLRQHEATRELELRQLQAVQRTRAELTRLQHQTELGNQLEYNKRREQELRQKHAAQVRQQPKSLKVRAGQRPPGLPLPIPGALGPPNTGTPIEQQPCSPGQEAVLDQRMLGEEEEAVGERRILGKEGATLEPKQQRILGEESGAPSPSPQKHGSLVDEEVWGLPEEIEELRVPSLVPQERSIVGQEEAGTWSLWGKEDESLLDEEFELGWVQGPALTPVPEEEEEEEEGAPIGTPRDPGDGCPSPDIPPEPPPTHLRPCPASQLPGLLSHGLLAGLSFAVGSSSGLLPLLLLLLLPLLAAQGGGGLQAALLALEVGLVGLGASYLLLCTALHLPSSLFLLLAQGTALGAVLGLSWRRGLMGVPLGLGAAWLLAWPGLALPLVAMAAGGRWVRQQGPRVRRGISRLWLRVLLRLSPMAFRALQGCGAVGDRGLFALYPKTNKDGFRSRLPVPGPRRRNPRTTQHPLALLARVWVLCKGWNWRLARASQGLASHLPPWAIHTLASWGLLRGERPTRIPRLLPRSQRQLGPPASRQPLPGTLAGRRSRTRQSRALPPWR"}, "PTK6 (human)": {"target": "PTK6 (human) (UniProt Q13882)"}, "ROCK2 (human)": {"target": "ROCK2 (human) (UniProt O75116)"}, "RPS6KB2 (human)": {"target": "RPS6KB2 (human) (UniProt Q9UBS0)", "sequence (Q9UBS0 whole entry, looked up)": "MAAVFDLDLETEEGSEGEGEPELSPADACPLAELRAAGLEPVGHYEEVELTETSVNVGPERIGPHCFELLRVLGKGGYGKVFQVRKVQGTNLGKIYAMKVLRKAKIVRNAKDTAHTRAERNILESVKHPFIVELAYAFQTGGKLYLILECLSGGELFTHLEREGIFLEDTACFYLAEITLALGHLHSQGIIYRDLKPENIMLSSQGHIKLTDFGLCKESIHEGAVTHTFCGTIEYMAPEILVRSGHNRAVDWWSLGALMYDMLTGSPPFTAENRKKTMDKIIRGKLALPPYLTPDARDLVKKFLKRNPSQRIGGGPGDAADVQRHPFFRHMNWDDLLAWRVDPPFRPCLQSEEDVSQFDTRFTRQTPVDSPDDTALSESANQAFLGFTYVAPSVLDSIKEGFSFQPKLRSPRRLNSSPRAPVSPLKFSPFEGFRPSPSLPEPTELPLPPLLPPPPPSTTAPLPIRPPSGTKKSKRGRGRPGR"}, "PRKCD (human)": {"target": "PRKCD (human) (UniProt Q05655)"}, "STK11 (human)": {"target": "STK11 (human) (UniProt Q15831)"}, "MET (human)": {"target": "MET (human) (UniProt P08581)"}}}
{"compound": "COc1cc2nccc(Oc3ccc(NC(=S)NC(=O)c4ccccc4C)cc3)c2cc1OC", "values": [{"measurement": "residual activity", "setting": "OXSR1 (human)", "value": 106, "unit": "%"}, {"measurement": "residual activity", "setting": "PTK2 (human)", "value": 90.7, "unit": "%"}, {"measurement": "residual activity", "setting": "CAMK1G (human)", "value": 99.5, "unit": "%"}, {"measurement": "residual activity", "setting": "PAK1 (human)", "value": 101, "unit": "%"}, {"measurement": "residual activity", "setting": "CSNK1G2 (human)", "value": 106, "unit": "%"}, {"measurement": "residual activity", "setting": "MARK1 (human)", "value": 91.4, "unit": "%"}, {"measurement": "residual activity", "setting": "EPHA7 (human)", "value": 90.4, "unit": "%"}, {"measurement": "residual activity", "setting": "NEK7 (human)", "value": 106, "unit": "%"}, {"measurement": "residual activity", "setting": "FRK (human)", "value": 27.5, "unit": "%"}, {"measurement": "residual activity", "setting": "ADRBK1 (human)", "value": 95.6, "unit": "%"}, {"measurement": "residual activity", "setting": "MAP4K4 (human)", "value": 87.8, "unit": "%"}, {"measurement": "residual activity", "setting": "STK3 (human)", "value": 86, "unit": "%"}, {"measurement": "residual activity", "setting": "NEK9 (human)", "value": 103, "unit": "%"}, {"measurement": "residual activity", "setting": "CDC42BPA (human)", "value": 93.9, "unit": "%"}, {"measurement": "residual activity", "setting": "PTK2B (human)", "value": 93.4, "unit": "%"}, {"measurement": "residual activity", "setting": "MATK (human)", "value": 93, "unit": "%"}, {"measurement": "residual activity", "setting": "CAMK2G (human)", "value": 103, "unit": "%"}, {"measurement": "residual activity", "setting": "RET (human)", "value": 86.7, "unit": "%"}, {"measurement": "residual activity", "setting": "MAPK9 (human)", "value": 82.7, "unit": "%"}, {"measurement": "residual activity", "setting": "PIM2 (human)", "value": 117, "unit": "%"}, {"measurement": "residual activity", "setting": "IKBKB (human)", "value": 99.4, "unit": "%"}, {"measurement": "residual activity", "setting": "DYRK1B (human)", "value": 110, "unit": "%"}, {"measurement": "residual activity", "setting": "SRMS (human)", "value": 111, "unit": "%"}, {"measurement": "residual activity", "setting": "NEK11 (human)", "value": 96.7, "unit": "%"}, {"measurement": "residual activity", "setting": "TSSK2 (human)", "value": 86.7, "unit": "%"}, {"measurement": "residual activity", "setting": "MST4 (human)", "value": 101, "unit": "%"}, {"measurement": "residual activity", "setting": "PAK3 (human)", "value": 99.7, "unit": "%"}, {"measurement": "residual activity", "setting": "MUSK (human)", "value": 95.9, "unit": "%"}, {"measurement": "residual activity", "setting": "GSK3B (human)", "value": 97.7, "unit": "%"}, {"measurement": "residual activity", "setting": "FES (human)", "value": 96.7, "unit": "%"}, {"measurement": "residual activity", "setting": "IKBKE (human)", "value": 96.2, "unit": "%"}, {"measurement": "residual activity", "setting": "NUAK1 (human)", "value": 82.5, "unit": "%"}, {"measurement": "residual activity", "setting": "ULK1 (human)", "value": 95, "unit": "%"}, {"measurement": "residual activity", "setting": "EPHA1 (human)", "value": 83, "unit": "%"}, {"measurement": "residual activity", "setting": "CAMK2D (human)", "value": 102, "unit": "%"}, {"measurement": "residual activity", "setting": "TAOK2 (human)", "value": 91.9, "unit": "%"}, {"measurement": "residual activity", "setting": "PTK6 (human)", "value": 33.9, "unit": "%"}, {"measurement": "residual activity", "setting": "ROCK2 (human)", "value": 92.5, "unit": "%"}, {"measurement": "residual activity", "setting": "RPS6KB2 (human)", "value": 97.3, "unit": "%"}, {"measurement": "residual activity", "setting": "PRKCD (human)", "value": 90.4, "unit": "%"}, {"measurement": "residual activity", "setting": "STK11 (human)", "value": 106, "unit": "%"}, {"measurement": "residual activity", "setting": "MET (human)", "value": 60.4, "unit": "%"}]}
